Measurements published in patent US20260262643A1, “HERBICIDAL BENZOXAZINES” (FMC CORPORATION, priority 2022, published 2026).
Like-named read-outs stand apart in the source and are kept apart here.

Experiments:
wheat [1] = assay: Test A preemergence; assay type: in vivo, Triticum aestivum; settings: Triticum aestivum, pre-emergence, 240 h, read-out: Plant response rating, Wheat; for plant injury at 125 g/ha: 125 g ai/ha, visual injury after 10 days, 0 to 100 scale, 0 is no effect, 100 is complete control; for plant injury at 500 g/ha: 500 g ai/ha, 0 to 100 scale (0 no effect, 100 complete control), 10 days
Outline: (§1)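 Weeds and crops in loam–sand blend were sprayed preemergence onto soil or postemergence at 2–10 cm (one- to two-leaf stage). Test chemicals were in a non-phytotoxic solvent with surfactant. After 10 days in the greenhouse, injury was rated visually against untreated controls on a 0 (no effect) to 100 (complete control) scale.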

foxtail, giant [2] = assay: Test A preemergence; assay type: in vivo, Setaria faberi; settings: Setaria faberi, pre-emergence, 240 h, read-out: Plant response rating, Foxtail, Giant; for pest or weed control at 125 g/ha: 125 g ai/ha, visual injury after 10 days, 0 to 100 scale, 0 is no effect, 100 is complete control; for pest or weed control at 500 g/ha: 500 g ai/ha, 0 to 100 scale (0 no effect, 100 complete control), 10 days
Outline: as §1

soybean = assay: Test A postemergence; assay type: in vivo, Glycine max; settings: Glycine max, post-emergence, 240 h, read-out: Plant response rating, Soybean; for plant injury at 500 g/ha: 500 g ai/ha; for plant injury at 125 g/ha: 125 g ai/ha
Outline: as §1

ducksalad = assay: Test B flooded paddy test; assay type: in vivo, Heteranthera limosa; settings: Heteranthera limosa, 312 h, 250 g ai/ha, Flood, 13 days, 0 to 100 scale (0 no effect, 100 complete control); read-out: Plant response rating, Ducksalad
Outline: (§2)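 Application into standing water (3 cm above soil) at the two-leaf stage; flood depth held constant. Evaluation: day 13, visual comparison with controls, 0 = no injury, 100 = complete control.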

foxtail, giant [3] = assay: Test A postemergence; assay type: in vivo, Setaria faberi; settings: Setaria faberi, post-emergence, 240 h, read-out: Plant response rating, Foxtail, Giant; for pest or weed control at 125 g/ha: 125 g ai/ha; for pest or weed control at 500 g/ha: 500 g ai/ha
Outline: as §1

galium = assay: Test A postemergence; assay type: in vivo, Galium aparine; settings: Galium, post-emergence, 240 h, read-out: Plant response rating, Galium; for pest or weed control at 125 g/ha: 125 g ai/ha; for pest or weed control at 500 g/ha: 500 g ai/ha
Outline: as §1

oat, wild = assay: Test A preemergence; assay type: in vivo, Avena fatua; settings: Avena fatua, pre-emergence, 240 h, read-out: Plant response rating, Oat, Wild; for pest or weed control at 125 g/ha: 125 g ai/ha, visual injury after 10 days, 0 to 100 scale, 0 is no effect, 100 is complete control; for pest or weed control at 500 g/ha: 500 g ai/ha, 0 to 100 scale (0 no effect, 100 complete control), 10 days
Outline: as §1

ragweed = assay: Test A preemergence; assay type: in vivo, Ambrosia artemisiifolia; settings: Ambrosia artemisiifolia, pre-emergence, 240 h, read-out: Plant response rating, Ragweed; for pest or weed control at 125 g/ha: 125 g ai/ha, visual injury after 10 days, 0 to 100 scale, 0 is no effect, 100 is complete control; for pest or weed control at 500 g/ha: 500 g ai/ha, 0 to 100 scale (0 no effect, 100 complete control), 10 days
Outline: as §1

corn [4] = assay: Test A preemergence; assay type: in vivo, Zea mays; settings: Zea mays, pre-emergence, 240 h; for Corn plant response rating (crop injury, 0 = no effect, 100 = complete kill) at 125 g/ha: 125 g ai/ha, visual injury after 10 days, 0 to 100 scale, 0 is no effect, 100 is complete control; for Corn plant response rating (crop injury, 0 = no effect, 100 = complete kill) at 500 g/ha: 500 g ai/ha, 0 to 100 scale (0 no effect, 100 complete control), 10 days
Outline: as §1

rice = assay: Test B flooded paddy test; assay type: in vivo, Oryza sativa; settings: Oryza sativa, 312 h; 250 g ai/ha, Flood, 13 days, 0 to 100 scale (0 no effect, 100 complete control); read-out: Plant response rating, Rice
Outline: as §2

corn [5] = assay: Test A postemergence; assay type: in vivo, Zea mays; settings: Zea mays, post-emergence, 240 h; for Corn plant response rating (crop injury, 0 = no effect, 100 = complete kill) at 125 g/ha: 125 g ai/ha; for Corn plant response rating (crop injury, 0 = no effect, 100 = complete kill) at 500 g/ha: 500 g ai/ha
Outline: as §1

kochia = assay: Test A postemergence; assay type: in vivo, Bassia scoparia; settings: Bassia scoparia, post-emergence, 240 h, read-out: Plant response rating, Kochia; for pest or weed control at 125 g/ha: 125 g ai/ha; for pest or weed control at 500 g/ha: 500 g ai/ha
Outline: as §1

barnyardgrass = assay: Test B flooded paddy test; assay type: in vivo, Echinochloa crus-galli; settings: Echinochloa crus-galli, 312 h, 250 g ai/ha, Flood, 13 days, 0 to 100 scale (0 no effect, 100 complete control); read-out: Plant response rating, Barnyardgrass
Outline: as §2

wheat [6] = assay: Test A postemergence; assay type: in vivo, Triticum aestivum; settings: Triticum aestivum, post-emergence, 240 h, read-out: Plant response rating, Wheat; for plant injury at 500 g/ha: 500 g ai/ha; for plant injury at 125 g/ha: 125 g ai/ha
Outline: as §1

ryegrass, Italian = assay: Test A postemergence; assay type: in vivo, Lolium multiflorum; settings: Lolium multiflorum, post-emergence, 240 h, read-out: Plant response rating, Ryegrass, Italian; for pest or weed control at 500 g/ha: 500 g ai/ha; for pest or weed control at 125 g/ha: 125 g ai/ha
Outline: as §1

[7] = postemergence, 10 days, visual injury, 0 to 100 scale (0 no effect, 100 complete control)

Structure (SMILES) | plant injury at 125 g/ha (wheat [1]) [%] | plant injury at 500 g/ha (wheat [1]) [%] | pest or weed control at 125 g/ha (foxtail, giant [2]) [%] | pest or weed control at 500 g/ha (foxtail, giant [2]) [%] | pest or weed control at 250 g/ha (ducksalad) [%] | pest or weed control at 125 g/ha (foxtail, giant [3]; [7]) [%] | pest or weed control at 125 g/ha (galium; [7]) [%] | pest or weed control at 125 g/ha (oat, wild) [%] | pest or weed control at 500 g/ha (oat, wild) [%] | pest or weed control at 125 g/ha (ragweed) [%] | pest or weed control at 500 g/ha (ragweed) [%] | Corn plant response rating (crop injury, 0 = no effect, 100 = complete kill) at 125 g/ha (corn [4]) [%] | Corn plant response rating (crop injury, 0 = no effect, 100 = complete kill) at 500 g/ha (corn [4]) [%] | plant injury at 250 g/ha (rice) [%] | Corn plant response rating (crop injury, 0 = no effect, 100 = complete kill) at 125 g/ha (corn [5]; [7]) [%] | pest or weed control at 125 g/ha (kochia; [7]) [%] | pest or weed control at 250 g/ha (barnyardgrass) [%] | plant injury at 125 g/ha (soybean; [7]) [%] | plant injury at 500 g/ha (soybean; Postemergence, 0 to 100 scale) [%] | pest or weed control at 500 g/ha (foxtail, giant [3]; Postemergence, 0 to 100 scale) [%] | further results
Cc1ncn(-c2ccc(C)c(C(=O)N3C[C@H](C)Oc4c(Cl)cccc43)c2)n1 (single isomer, unassigned) [Compound 74] | 20 | 90 | 100 | 100 | 60 | 90 | 100 | 60 | 90 | 0 | 100 | 40 | 90 | 20 | 60 | 70 | 10 | – | – | – | plant injury at 500 g/ha (soybean; [7]): 100%; pest or weed control at 500 g/ha (foxtail, giant [3]; [7]): 90%; pest or weed control at 500 g/ha (galium; [7]): 100%; Corn plant response rating (crop injury, 0 = no effect, 100 = complete kill) at 500 g/ha (corn [5]; [7]): 90%; pest or weed control at 500 g/ha (kochia; [7]): 90%; plant injury at 500 g/ha (wheat [6]; [7]): 80%; pest or weed control at 500 g/ha (ryegrass, Italian; [7]): 100%
Cc1cccc2c1O[C@@H](C)CN2C(=O)c1cccc(-n2cnc(Br)n2)c1 [Compound 61, [3-(3-Bromo-1H-1,2,4-triazol-1-yl)phenyl][(2S)-2,3-dihydro-2,8-dimethyl-4H-1,4-benzoxazin-4-yl]methanone] | 0 | 20 | 90 | 90 | 15 | 60 | 70 | 30 | 30 | 0 | 40 | 0 | 0 | 0 | 10 | 20 | 0 | 100 | 100 | 80 | pest or weed control at 500 g/ha (galium; Postemergence, 0 to 100 scale): 100%; Corn plant response rating (crop injury, 0 = no effect, 100 = complete kill) at 500 g/ha (corn [5]; Postemergence, 0 to 100 scale): 10%; pest or weed control at 500 g/ha (kochia; Postemergence, 0 to 100 scale): 70%; plant injury at 125 g/ha (wheat [6]; [7]): 10%; plant injury at 500 g/ha (wheat [6]; Postemergence, 0 to 100 scale): 20%; pest or weed control at 125 g/ha (ryegrass, Italian; [7]): 40%; pest or weed control at 500 g/ha (ryegrass, Italian; Postemergence, 0 to 100 scale): 40%
COc1ccc(-n2cncn2)cc1C(=O)N1C[C@H](C)Oc2c(C)cccc21 [Compound 63, [(2S)-2,3-Dihydro-2,8-dimethyl-4H-1,4-benzoxazin-4-yl][2-methoxy-5-(1H-1,2,4-triazol-1-yl)phenyl]methanone] | 40 | 90 | 100 | 100 | 90 | 90 | 100 | 60 | 90 | 0 | 40 | 60 | 80 | 0 | 80 | 10 | 0 | 100 | 100 | 90 | pest or weed control at 500 g/ha (galium; Postemergence, 0 to 100 scale): 100%; Corn plant response rating (crop injury, 0 = no effect, 100 = complete kill) at 500 g/ha (corn [5]; Postemergence, 0 to 100 scale): 80%; pest or weed control at 500 g/ha (kochia; Postemergence, 0 to 100 scale): 20%; plant injury at 125 g/ha (wheat [6]; [7]): 70%; plant injury at 500 g/ha (wheat [6]; Postemergence, 0 to 100 scale): 90%; pest or weed control at 125 g/ha (ryegrass, Italian; [7]): 80%; pest or weed control at 500 g/ha (ryegrass, Italian; Postemergence, 0 to 100 scale): 100%
